Measured values published in patent publication US12441736B2, “KIF18A inhibitors” (AMGEN INC., priority 2018, dated 2025).

molecular target: T1, Recombinant human KIF18A (1-467 His-tagged) protein (Homo sapiens, UniProt Q8NI77); test: KIF18A Enzyme Assay: microtubule-stimulated ATPase activity (ADP-Glo); assay type: biochemical; conditions: 30 nM KIF18A, 30 μg/mL pig microtubules, 75 μM ATP, ADP-Glo luminescence
T1 construct: Recombinant human KIF18A (1-467 His-tagged) protein; His; made in house
T1 sequence (Q8NI77 1-467): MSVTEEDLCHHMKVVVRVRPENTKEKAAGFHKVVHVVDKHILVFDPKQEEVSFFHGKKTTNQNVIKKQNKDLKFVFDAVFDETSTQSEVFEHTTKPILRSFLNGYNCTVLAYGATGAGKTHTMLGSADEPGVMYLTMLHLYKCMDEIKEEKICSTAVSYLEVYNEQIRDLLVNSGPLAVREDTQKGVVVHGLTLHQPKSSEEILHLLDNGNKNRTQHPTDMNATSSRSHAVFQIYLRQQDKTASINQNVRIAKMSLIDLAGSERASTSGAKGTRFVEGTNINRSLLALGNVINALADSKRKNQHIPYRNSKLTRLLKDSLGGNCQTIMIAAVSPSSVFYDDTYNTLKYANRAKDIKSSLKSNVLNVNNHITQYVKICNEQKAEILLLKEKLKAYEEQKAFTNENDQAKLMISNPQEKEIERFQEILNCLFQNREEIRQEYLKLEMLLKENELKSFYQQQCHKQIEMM
T1 sequence (P02550 whole entry partner): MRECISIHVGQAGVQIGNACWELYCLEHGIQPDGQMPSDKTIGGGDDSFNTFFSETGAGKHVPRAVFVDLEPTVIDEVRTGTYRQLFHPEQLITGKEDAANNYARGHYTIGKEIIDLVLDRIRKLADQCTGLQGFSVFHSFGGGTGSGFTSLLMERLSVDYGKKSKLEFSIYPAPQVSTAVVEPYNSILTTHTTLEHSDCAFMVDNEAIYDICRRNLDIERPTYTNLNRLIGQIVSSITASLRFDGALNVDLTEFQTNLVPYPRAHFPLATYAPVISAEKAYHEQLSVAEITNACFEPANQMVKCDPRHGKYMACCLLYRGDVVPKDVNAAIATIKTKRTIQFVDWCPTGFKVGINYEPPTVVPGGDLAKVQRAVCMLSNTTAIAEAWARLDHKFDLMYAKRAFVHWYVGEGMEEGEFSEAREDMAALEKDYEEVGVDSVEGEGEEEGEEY
T1 sequence (P02554 whole entry partner): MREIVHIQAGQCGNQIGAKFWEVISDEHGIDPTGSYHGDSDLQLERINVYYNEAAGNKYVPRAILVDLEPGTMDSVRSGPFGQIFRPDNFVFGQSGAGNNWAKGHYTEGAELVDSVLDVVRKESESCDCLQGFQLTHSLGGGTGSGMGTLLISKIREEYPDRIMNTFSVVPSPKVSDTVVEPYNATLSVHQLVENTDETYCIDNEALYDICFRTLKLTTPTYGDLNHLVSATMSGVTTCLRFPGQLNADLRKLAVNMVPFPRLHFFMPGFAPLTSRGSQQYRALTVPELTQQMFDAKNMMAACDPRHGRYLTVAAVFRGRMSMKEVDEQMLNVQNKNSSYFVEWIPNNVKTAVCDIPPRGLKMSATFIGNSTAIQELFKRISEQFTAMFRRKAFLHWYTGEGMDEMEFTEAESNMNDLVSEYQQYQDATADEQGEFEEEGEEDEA
Source text: KIF18A Enzyme Assay: Microtubule-stimulated ATPase activity assay is used to measure KIF18A enzyme activity after treatment with compound. Compounds were 2-fold serially diluted in DMSO (Sigma Inc) over 22-point concentration range. Recombinant human KIF18A (1-467 His-tagged) protein was expressed using a baculovirus system and purified by affinity chromatography by Amgen Inc. Concentrations of KIF18A protein, microtubules (MT), and ATP in the reaction were optimized for standardized homogenous enzyme assay using ADP-Glo™ Kinase/ATPase Assay Kit (Promega Inc). The assay measures ADP formed from the ATPase reaction. Prepare reaction buffer [(15 mM Tris, pH 7.5 (Teknova Inc), 10 mM MgCl2 (IT Baker Inc), 0.01% Pluronic F-68 (Life Technologies Inc), 1 μM Taxol (Cytoskeleton Inc), and 30 μg/mL pig microtubules (Cytoskeleton Inc)]. Add compound and KIF18A protein (30 nM) to prepared reaction buffer and incubated for 15 minutes at room temperature, next add ATP (at Kin, 75 μM) to the reaction mixture and incubated for an additional 15 minutes at room temperature. Mix 5 μl of ADP-Glo™ Reagent and 2.5 μl of the reaction mixture and incubate for 40 minutes at room temperature. Add 10 μl ADP-Glo™ Detection Reagent and incubate for 40 minutes at room temperature. Read luminescence using EnVision microplate reader with ultra-luminescence module (Perkin Elmer Inc). Concentration-response curve-fitting and IC50 determination was performed using Genedata Screener Software (Standard 15.0.1, Genedata Inc) with a four-parameter logistic regression fit model.
Table A provides data for compounds exemplified in the present application and priority document thereof, as representative compounds of the present invention, as follows: chemical name (as named by either ACD software or ChemDraw (Professional 15.0)) and biological data (IC50 in μM). Ex. # refers to Example No.

Point of comparison: `C[C@@H]1CN(c2cccc(NC(=O)c3ccc(N4CC(O)CC4(C)C)nc3N3CCC4(CC3)CC4)n2)CCO1` (stereo partly drawn) [Example 213, 6-(4-hydroxy-2,2-dimethylpyrrolidin-1-yl)-N-(6-((R)-2-methylmorpholino)pyridin-2-yl)-2-(6-azaspiro[2.5]octan-6-yl)nicotinamide], IC50 523 nM. Against it:
- CC(CO)(CO)Nc1ccc(C(=O)Nc2cccc(N3CCC(F)(F)C3)n2)c(N2CCC3(CC2)CC3)n1 [Example 149, 2-(6-azaspiro[2.5]oct-6-yl)-N-(6-(3,3-difluoro-1-pyrrolidinyl)-2-pyridinyl)-6-((1,3-dihydroxy-2-methyl-2-propanyl)amino)-3-pyridinecarboxamide] — 8.8-fold lower, 59.1 nM
- CC(C)(C)NS(=O)(=O)c1cccc(NC(=O)c2ccc([C@@](C)(O)C(F)(F)F)nc2N2CCC3(CC2)CC3)n1 (single isomer, unassigned) [Example 153] — 9.8-fold lower, 53.4 nM
- CC(O)(c1ccc(C(=O)Nc2cccc(N3CCOCC3)n2)c(N2CCC3(CC2)CC3)n1)C(F)(F)F (stereo not drawn) [Example 140, N-(6-morpholinopyridin-2-yl)-2-(6-azaspiro[2.5]octan-6-yl)-6-(1,1,1-trifluoro-2-hydroxypropan-2-yl)nicotinamide] — 7.3-fold lower, 71.2 nM
- CC(C)(C)NS(=O)(=O)c1cccc(NC(=O)c2ccc(C(F)(CO)CO)nc2N2CCC3(CC2)CC3)n1 [Example 194, 2-(6-azaspiro[2.5]octan-6-yl)-6-(2-fluoro-1,3-dihydroxy-2-propanyl)-N-(6-((2-methyl-2-propanyl)sulfamoyl)-2-pyridinyl)-3-pyridinecarboxamide] — 1.8-fold lower, 283 nM
- C[C@@H]1CN(c2cccc(NC(=O)c3ccc(C(F)CO)nc3N3CCC4(CC3)CC4)n2)CCO1 (stereo partly drawn) [Example 197, 6-(1-Fluoro-2-hydroxyethyl)-N-(6-((R)-2-methylmorpholino)pyridin-2-yl)-2-(6-azaspiro[2.5]octan-6-yl)nicotinamide] — 2.9-fold lower, 180 nM
- Cc1cc(NC(=O)c2ccc(NC(C)(C)CCO)nc2N2CCC3(CC2)CC3)nc(N2CCOCC2)c1 [Example 211, 2-(6-azaspiro[2.5]octan-6-yl)-6-((4-hydroxy-2-methyl-2-butanyl)amino)-N-(4-methyl-6-(4-morpholinyl)-2-pyridinyl)-3-pyridinecarboxamide] — 3.7-fold lower, 142 nM
- CC(C)(CO)Nc1ccc(C(=O)Nc2cc(Cl)cc(N3CCOCC3)n2)c(N2CCC3(CC2)CC3)n1 [Example 152, 2-(6-azaspiro[2.5]oct-6-yl)-N-(4-chloro-6-(4-morpholinyl)-2-pyridinyl)-6-((1-hydroxy-2-methyl-2-propanyl)amino)-3-pyridinecarboxamide] — 7-fold lower, 74.3 nM
- CC(C)(CO)Nc1ccc(C(=O)Nc2cccc(N3CCCC(N)C3)n2)c(N2CCC3(CC2)CC3)n1 (stereo not drawn) [Example 236, N-(6-(3-aminopiperidin-1-yl)pyridin-2-yl)-6-((1-hydroxy-2-methylpropan-2-yl)amino)-2-(6-azaspiro[2.5]octan-6-yl)nicotinamide] — within 1.5-fold, 388 nM
- C[C@@H]1CN(c2cccc(NC(=O)c3ncc(N4C(=O)OCC4(C)C)nc3N3CCC4(CC3)CC4)n2)CCO1 [Example 103, 3-(6-azaspiro[2.5]oct-6-yl)-5-(4,4-dimethyl-2-oxo-1,3-oxazolidin-3-yl)-N-(6-((2R)-2-methyl-4-morpholinyl)-2-pyridinyl)-2-pyrazinecarboxamide] — 3.7-fold higher, 1940 nM
- C[C@H]1CN(c2cccc(NC(=O)c3ccc(NC(C)(C)CO)nc3N3CCC4(CC3)CC4)n2)C[C@H](C)O1 (racemic) [Example 150, N-(6-((2S,6S)-2,6-dimethylmorpholino)pyridin-2-yl)-6-((1-hydroxy-2-methylpropan-2-yl)amino)-2-(6-azaspiro[2.5]octan-6-yl)nicotinamide] — 5.2-fold lower, 99.7 nM
- CC(C)(CO)Nc1cnc(C(=O)Nc2cccc(S(=O)(=O)N3CCCCC3)n2)c(N2CCC3(CC2)CC3)n1 [Example 100, 5-((1-hydroxy-2-methylpropan-2-yl)amino)-N-(6-(piperidin-1-ylsulfonyl)pyridin-2-yl)-3-(6-azaspiro[2.5]octan-6-yl)pyrazine-2-carboxamide] — 7.4-fold lower, 70.5 nM
- COC1CN(c2cccc(NC(=O)c3ccc(NC(C)(C)CO)nc3N3CCC4(CC3)CC4)n2)C1 [Example 145, 2-(6-azaspiro[2.5]oct-6-yl)-6-((1-hydroxy-2-methyl-2-propanyl)amino)-N-(6-(3-methoxy-1-azetidinyl)-2-pyridinyl)-3-pyridinecarboxamide] — 3.1-fold lower, 168 nM
- C[C@@H]1CN(c2cccc(NC(=O)c3ccc(C(F)(CO)CO)nc3N3CCC4(CC3)CC4)n2)CCO1 [Example 196, 2-(6-azaspiro[2.5]octan-6-yl)-6-(2-fluoro-1,3-dihydroxy-2-propanyl)-N-(6-((2R)-2-methyl-4-morpholinyl)-2-pyridinyl)-3-pyridinecarboxamide] — 3.3-fold lower, 158 nM
- CC(C)(CO)Nc1cnc(C(=O)Nc2cc(C3CC3)cc(N3CCOCC3)n2)c(N2CCC3(CC2)CC3)n1 [Example 118, 3-(6-azaspiro[2.5]octan-6-yl)-N-(4-cyclopropyl-6-(4-morpholinyl)-2-pyridinyl)-5-((1-hydroxy-2-methyl-2-propanyl)amino)-2-pyrazinecarboxamide] — within 1.5-fold, 540 nM
- C[C@@H]1CN(c2cccc(NC(=O)c3ccc(S(N)(=O)=O)nc3N3CCC4(CC3)CC4)n2)CCO1 [Example 224, 2-(6-azaspiro[2.5]octan-6-yl)-N-(6-((2R)-2-methyl-4-morpholinyl)-2-pyridinyl)-6-sulfamoyl-3-pyridinecarboxamide] — 7.6-fold lower, 68.8 nM
- C[C@@H]1CN(c2cccc(NC(=O)c3ccc(NC(CO)(CO)CO)nc3N3CCC4(CC3)CC4)n2)CCO1 [Example 222, 2-(6-azaspiro[2.5]octan-6-yl)-6-((1,3-dihydroxy-2-(hydroxymethyl)-2-propanyl)amino)-N-(6-((2R)-2-methyl-4-morpholinyl)-2-pyridinyl)-3-pyridinecarboxamide] — 5.9-fold lower, 88 nM
- O=C(Nc1cccc(N2CCOCC2)n1)c1ccc([C@](O)(CO)C(F)(F)F)nc1N1CCC2(CC1)CC2 (single isomer, unassigned) [Example 202] — 7.6-fold lower, 68.4 nM
- CC(C)(C)NS(=O)(=O)c1cccc(NC(=O)c2ccc([C@@](C)(O)CO)nc2N2CCC3(CC2)CC3)n1 (single isomer, unassigned) [Example 178] — 4.8-fold lower, 109 nM
- CC(C)(CO)Nc1cnc(C(=O)Nc2cc(C#N)cc(N3CCOCC3)n2)c(N2CCC3(CC2)CC3)n1 [Example 117, 3-(6-azaspiro[2.5]octan-6-yl)-N-(4-cyano-6-(4-morpholinyl)-2-pyridinyl)-5-((1-hydroxy-2-methyl-2-propanyl)amino)-2-pyrazinecarboxamide] — 3.8-fold lower, 138 nM
- CC(O)(c1ccc(NC(=O)c2cccc(N3CCOCC3)n2)c(N2CCC3(CC2)CC3)n1)C(F)(F)F (stereo not drawn) [Example 246, N-(2-(6-Azaspiro[2.5]octan-6-yl)-6-(1,1,1-trifluoro-2-hydroxypropan-2-yl)pyridin-3-yl)-6-morpholinopicolinamide] — 1.8-fold lower, 292 nM
- C[C@@H]1CN(c2cccc(NC(=O)c3ccc([C@](O)(CO)C(F)(F)F)nc3N3CCC4(CC3)CC4)n2)CCO1 (single isomer, unassigned) [Example 207] — 5-fold lower, 105 nM
- COC1CCN(c2cccc(NC(=O)c3ccc(NC(C)(C)CO)nc3N3CCC4(CC3)CC4)n2)C1 (stereo not drawn) [Example 124, 6-((1-hydroxy-2-methylpropan-2-yl)amino)-N-(6-(3-methoxypyrrolidin-l-yl)pyridin-2-yl)-2-(6-azaspiro[2.5]octan-6-yl)nicotinamide] — within 1.5-fold, 407 nM
- CC(C)(CO)Nc1ccc(C(=O)Nc2cccc(N3CC4(COC4)C3)n2)c(N2CCC3(CC2)CC3)n1 [Example 163, 2-(6-azaspiro[2.5]octan-6-yl)-6-((1-hydroxy-2-methyl-2-propanyl)amino)-N-(6-(2-oxa-6-azaspiro[3.3]heptan-6-yl)-2-pyridinyl)-3-pyridinecarboxamide] — 3.3-fold lower, 159 nM
- Cc1cc(NC(=O)c2ccc(NC(C)(CO)CO)nc2N2CCC3(CC2)CC3)nc(N2CCOCC2)c1 [Example 184, 2-(6-azaspiro[2.5]octan-6-yl)-6-((1,3-dihydroxy-2-methyl-2-propanyl)amino)-N-(4-methyl-6-(4-morpholinyl)-2-pyridinyl)-3-pyridinecarboxamide] — 8.4-fold lower, 62 nM
- CC(C)(C)NS(=O)(=O)c1cccc(NC(=O)c2ncc(NC(C)(CO)CO)nc2N2CCC3(CC2)CC3)n1 [Example 108, N-(6-(N-(tert-butyl)sulfamoyl)pyridin-2-yl)-5-((1,3-dihydroxy-2-methylpropan-2-yl)amino)-3-(6-azaspiro[2.5]octan-6-yl)pyrazine-2-carboxamide] — 6-fold lower, 87.8 nM
- Cc1cc(NC(=O)c2ccc(CS(C)(=O)=O)nc2N2CCC3(CC2)CC3)nc(N2CCOCC2)c1 [Example 240, 2-(6-azaspiro[2.5]octan-6-yl)-N-(4-methyl-6-(4-morpholinyl)-2-pyridinyl)-6-((methylsulfonyl)methyl)-3-pyridinecarboxamide] — 4.9-fold lower, 107 nM
